{"source": "paper PMC8704911", "about": "“Novel Combinatorial Strategy Using Thermal Inkjet Bioprinting, Chemotherapy, and Radiation on Human Breast Cancer Cells; an In-Vitro Cell Viability Assessment” (Materials, 2021)", "key": {"MDA-MB-231 cells": {"test_system": "MDA-MB-231 cells", "conditions": "H2O2 exposure, RT = 20 Gy (table head; Table 6 title says 10 Gray in 3 fractions)"}, "MCF7 cells": {"test_system": "MCF7 cells", "conditions": "H2O2 exposure", "experimental": "PD 0332991 HCL (Palbociclib) and letrozole (Let; Formula: C17H11N5) were obtained from Fisher Scientific (Waltham, MA, USA). Palbociclib was dissolved in dimethyl sulfoxide (DMSO) to obtain a stock solution of 1 mM. Letrozole was dissolved in DMSO as a 100 mM stock solution. Drugs were serially diluted to determine the cytotoxic concentration 50% (CC50) of the TIB and manually seeded cell samples required to kill 50% of the cell population. Additionally, the CC50 values were determined by using the cytotoxicity values obtained experimentally and the linear interpolator webpage (https://www.johndcook.com/interpolator.html (accessed on 16 December 2021)) as previously described. […] TIB and MS MCF7 cells were incubated for 24 h prior to drug exposure. The same procedure explained in Section 2.5 was followed to determine cell viability.\nApproximately, 1.2 × 10^6 cells/mL were resuspended in 1x PBS and used as the bioink cell solution. Modified inkjet cartridges were sonicated in deionized water for 15 min and tested in a previously modified thermal inkjet printer (HP Deskjet 340 Printer, HP, Palo Alto, CA, USA) inside of a biological safety cabinet. Next, 100 µL of cell solution was added to a modified sterile inkjet printer cartridge. The cell solution was bioprinted over one-half of the 96-well plate containing 200 µL of pre-incubated media. Manually seeded cells (MS) were added to the other half of the 96-well plate. Both TIB and MS cells were incubated immediately after with two media changes first at three days post bioprinting and then prior to the drug treatments.\nThermal inkjet bioprinted and manually seeded MCF7 cells were incubated for 5 days post bioprinting with two media changes to allow cells to settle and grow in their new environment. On the 5th day, each well-containing cell was adjusted to 10, 50, 100, and 150 µM PD and 10 µM Let. Letrozole remained constant for all treatments at 10 µM and is referred to as ##.# µM PD-Let. After 12 h post inoculation then at 24-h intervals for five consecutive days, all PD-Let-treated and non-treated cells were exposed to fractionated irradiation (RT) of 2, 4 (twice), and 5 (twice) Gray (Gy) for a cumulative dose of 10 and 20 Gy. Cell media was replenished after cumulative irradiation exposure of 10 Gy.\nCytotoxicity was assessed using an automated live-cell differential nuclear staining (DNS) imaging assay. […] Cytotoxicity was evaluated 12 h post irradiation by using the live-cell differential nuclear staining […] assay utilizing Hoechst 33342 and propidium iodide (PI) stains as previously described. […] Images of cells from individual wells used to quantify their viability profiles were independently captured by using the IN Cell Analyzer 2000 multi-well plate reader bioimager system (GE Healthcare, Systems, Chicago, IL, USA). […]"}, "MCF-10A cells": {"test_system": "MCF-10A cells", "conditions": "H2O2 exposure"}}, "note": "Like-named read-outs stand apart in the source and are kept apart here.", "data": [{"smiles": "OO", "note": "[H2O2]", "values": [{"measurement": "Mean % of Live Cells MS", "setting": "MDA-MB-231 cells", "value": 0.4, "unit": "%"}, {"measurement": "Mean % of Live Cells TIB", "setting": "MDA-MB-231 cells", "value": 0.0, "unit": "%"}, {"measurement": "Mean % of Live Cells MS", "setting": "MCF7 cells; RT = 10 gray in 3 fractions", "value": 15.4, "unit": "%"}, {"measurement": "Mean % of Live Cells TIB", "setting": "MCF7 cells; RT = 10 gray in 3 fractions", "value": 12.1, "unit": "%"}, {"measurement": "Mean % of Live Cells MS", "setting": "MCF7 cells; RT = 20 gray in 5 fractions", "value": 0.3, "unit": "%"}, {"measurement": "Mean % of Live Cells TIB", "setting": "MCF7 cells; RT = 20 gray in 5 fractions", "value": 0.0, "unit": "%"}, {"measurement": "Mean % of Live Cells MS", "setting": "MCF-10A cells; RT = 0", "value": 0.00, "unit": "%"}, {"measurement": "Mean % of Live Cells TIB", "setting": "MCF-10A cells; RT = 0", "value": 0.0, "unit": "%"}, {"measurement": "Mean % of Live Cells TIB", "setting": "MCF-10A cells; RT = 10 gray in 3 fractions, first column", "value": 2.9, "unit": "%"}, {"measurement": "Mean % of Live Cells TIB", "setting": "MCF-10A cells; RT = 10 gray in 3 fractions, second column so headed", "value": 2.8, "unit": "%"}, {"measurement": "Mean % of Live Cells MS", "setting": "MCF-10A cells; RT = 20 Gray in 5 fractions", "value": 1.9, "unit": "%"}, {"measurement": "Mean % of Live Cells TIB", "setting": "MCF-10A cells; RT = 20 Gray in 5 fractions", "value": 0.0, "unit": "%"}]}]}
